From US20200113882A1, “Use of 4-Aminopyridine to Improve Neuro-Cognitive and/or Neuro-Psychiatric Impairment in Patients with Demyelinating and Other Nervous System Conditions” (priority 2009, published 2020)

Legend:
[1] = single- and repeated-dose toxicity studies in animals; assay type: in vivo
Procedure: In single- and repeated-dose toxicity studies, the dosing regimen greatly affected the rate of mortality and incidence of clinical signs in all species studied (with the possible exception of the mouse). In general, higher mortality rates and greater incidences of adverse clinical signs were noted when 4-aminopyridine was administered in a single large dose as compared to when the same total dose was given as two, three, or four equally divided sub-doses. Toxic responses to orally administered 4-aminopyridine were rapid in onset, most often occurring within the first 2 hours post-dose.
These clinical signs were not unexpected and represent exaggerated pharmacology of 4-aminopyridine.

[2] = system: normal adult myelinated axons; conditions: cited from earlier work
[3] = adverse events in clinical studies; assay type: in vivo, human; conditions: controlled clinical studies
Excerpt: In controlled clinical studies involving the use of fampridine, the most frequent adverse events by body system occurred in the nervous system, “body as a whole”, and digestive system.
While an increased incidence of such events appears to be moderately dose-related, the susceptibility of individuals is quite variable. The potential for lowering seizure threshold in people with MS appears to be more significant than for people with spinal cord injury, which may result from interaction of the channel-blocking properties of the drug with MS brain pathology in certain individuals.

[4] = rat pharmacokinetics after i.v. and p.o. 2 mg/kg (M 2001-03); conditions: rats, single p.o. 2 mg/kg
[5] = system: cognitive function in MS patients; conditions: prior study; cited from earlier work
[6] = 14C-4-aminopyridine single oral dose 1 mg/kg in dogs (HWI 6379-102): absorption; assay type: in vivo, dog; conditions: equal mg/kg doses, 1 mg/kg oral
Procedure: (§1) Studies were performed in rats and dogs using ^14C-labeled 4-aminopyridine (1 mg/kg) given as a single oral gavage dose in solution.

[7] = 14C-4-aminopyridine single oral dose 1 mg/kg in rats (HWI 6379-101): absorption, tissue distribution
Procedure: as §1
In a single-dose study, rats were administered ^14C-labeled 4-aminopyridine (1 mg/kg) p.o. Three animals per time point were sacrificed 1, 3, 8, and 24 hours post-dose. Blood was collected and tissues were excised for determination of radioactivity.

[8] = rats, 1 mg/kg p.o., one hour post-dose

Nc1ccncc1 [4-aminopyridine]
clinical signs ([1]; after large single doses or repeated lower doses, all species studied): tremors, convulsions, ataxia, dyspnea, dilated pupils, prostration, abnormal vocalization, increased respiration, excess salivation, gait abnormalities, and hyper- and hypo-excitability
onset of toxic responses post-dose ([1]; orally administered, most often): ≤ 2 h
concentrations that tend to cause gradual depolarization of the axon resting potential ([2]; (94.1 μg/mL)): above 1 mM
concentrations at which action potential shows little or no sensitivity ([2]; normal adult myelinated axons (9.4 μg/mL)): below 100 μM
most common nervous system adverse events [3]: Dizziness, insomnia, paresthesia, pain, headache and asthenia
most frequently reported digestive system adverse event [3]: nausea
Vdss difference between males and females adjusted for body weight [4]: 2%
benefit of cognitive function [5]: did not show benefit

Nc1ccncc1 [14C-4-Aminopyridine]
Cmax and AUC in the dog relative to the rat [6]: approximately four-fold higher
time to peak plasma levels ([7]; both, rat, in vivo, po, 1 mg/kg): 0.5 to 1 h
radioactive dose in carcass ([7]; rats, 1 mg/kg p.o., 3 hours post-dose): 15.4%
dose accounted for in total (radioactivity) [7, 8]: 58.3%
radioactivity in blood, percent of dose [7, 8]: 0.7%
radioactivity in carcass [7, 8]: 51%
radioactivity in kidney, percent of dose [7, 8]: 1.6%
radioactivity in liver, percent of dose [7, 8]: 2.6%
